The source made the active and inactive calls. No rule for the calls is given here.
Biological target: Influenza A virus M2 proton channel (A/TW/4845/1999 H1N1)
Experiment: NMR binding screen, influenza A virus M2 proton channel, Kd (AID 1549)
Settings: M2 protein

Compound	Kd
C=C(C)[C@H]1Cc2c(ccc3c2O[C@@H]2COc4cc(OC)c(OC)cc4[C@@H]2C3=O)O1	> 4 mM (inactive)
Cc1nc2nc(-c3ccco3)nn2c(C)c1Cl	> 4 mM (inactive)
CN(C)c1ccc(CNn2cnnc2)cc1	> 4 mM (inactive)
COCc1nn2c(N)c(C#N)cnc2c1-c1ccccc1	> 4 mM (inactive)
O=C(O[C@@H]1Cc2c(O)cc(O)cc2O[C@@H]1c1cc(=O)c(O)c2c(O)c(O)cc([C@H]3Oc4cc(O)cc(O)c4C[C@H]3O)c2c1)c1cc(O)c(O)c(O)c1	> 4 mM (inactive)
Cc1cc(C)nc(/N=C(/N)N2CCN(C)CC2)n1	> 4 mM (inactive)
O=C1CC(=O)N(c2ccccc2)C(=O)N1	> 4 mM (inactive)
Cc1occc1C(=O)Nc1nnc(C(F)(F)F)s1	> 4 mM (inactive)
O=C(CN1CCOCC1)Nc1cccc(Br)c1	> 4 mM (inactive)
NCCN=C1NS(=O)(=O)c2ccccc21	> 4 mM (inactive)
O=C(O)c1ccccc1C(=O)Nc1ccccc1	> 4 mM (inactive)
O=c1[nH]nc(Cc2ccccn2)c2ccccc12	> 4 mM (inactive)
CCOC(=O)c1c(C)nc2sccn12	> 4 mM (inactive)
c1ccc(SCc2nc(-c3cccnc3)no2)cc1	> 4 mM (inactive)
COc1cc(-c2coc3cc(O[C@@H]4O[C@H](CO)[C@@H](O)[C@H](O)[C@H]4O)c(OC)c(O)c3c2=O)cc(O)c1OC	> 4 mM (inactive)
Cn1c(=O)c2c(ncn2CCNC2=NCCC2)n(C)c1=O	> 4 mM (inactive)
COC1C(O)C(O)C(O)[C@@H](O)C1O (stereo partly drawn)	> 4 mM (inactive)
NC(=O)C1CCN(C(=S)c2cccs2)CC1	> 4 mM (inactive)
C[C@]12C=CC(=O)C=C1CCC1C2CC[C@]2(C)C(=O)CCC12 (stereo partly drawn)	> 4 mM (inactive)
COc1ccccc1CNc1nc2nc(C)cc(=O)n2[nH]1	> 4 mM (inactive)
NC(=NCCC[C@H](N)C(=O)O)NC(CCC(=O)O)C(=O)O (stereo partly drawn)	> 4 mM (inactive)
O=C(O)C1COc2ccccc2C1 (stereo not drawn)	> 4 mM (inactive)

Compound	Kd
CNC(=O)c1ccccc1N	> 4 mM (inactive)
O=C(Nc1ccc2c(c1)OCCO2)c1c(F)cccc1F	> 4 mM (inactive)
O=C(Nc1ccc2c(c1)OCO2)c1cnn2cccnc12	> 4 mM (inactive)
NCCC(=O)N[C@@H](Cc1cnc[nH]1)C(=O)O	> 4 mM (inactive)
Cn1nccc1N	> 4 mM (inactive)
O=C(O)C(O)C(O)C(O)C(O)C(=O)O (stereo not drawn)	> 4 mM (inactive)
OC1CSc2ncnn2C1 (stereo not drawn)	> 4 mM (inactive)
Cc1cccc(N2CCN(C(=O)c3ccncc3)CC2)c1C	> 4 mM (inactive)
CN1CCN(C(=O)c2ccccc2N)CC1	> 4 mM (inactive)
CN1CCN(S(=O)(=O)c2ccc(=O)[nH]c2)CC1	> 4 mM (inactive)
C=CCCCCCCCCCCCc1ccco1	> 4 mM (inactive)
Nc1nnc(SCc2ccccc2Cl)s1	> 4 mM (inactive)
CNc1nnc(Cc2csc(N)n2)s1	> 4 mM (inactive)
O=C(O)CCC(=O)c1cccc2ccccc12	> 4 mM (inactive)
Brc1cccc(-c2nnco2)c1	> 4 mM (inactive)
Nc1ccc2nsnc2c1	> 4 mM (inactive)
O=C(CSc1ncn[nH]1)c1ccccc1	> 4 mM (inactive)
CCC(C)C(=O)c1c(O)c(C)c2oc3c(C)c(O)c(C(=O)C(C)CC)c(O)c3c2c1O (stereo not drawn)	> 4 mM (inactive)
Cc1nn(C)c(N2CCOCC2)c1N	> 4 mM (inactive)
Cc1cc(=O)n2[nH]c(C)cc2n1	> 4 mM (inactive)
COc1ccc(C(C)=O)c(OC)c1	> 4 mM (inactive)
O=C(CNC(=O)c1ccc(F)cc1)NC1=NCCS1	> 4 mM (inactive)

Compound	Kd
Cc1cc(O)c(NC(=O)c2ccco2)cc1C	> 4 mM (inactive)
CSc1ccn(CCC(=O)O)c(=O)n1	> 4 mM (inactive)
Cc1ccccc1C(=O)Nc1cccc(N)c1	> 4 mM (inactive)
O=C(O)C1CC(=O)N(Cc2ccc(F)cc2)C1 (stereo not drawn)	> 4 mM (inactive)
CC(=O)/C=C\[C@@H]1[C@@]2(C)CCCC(C)(C)C2CC[C@@]1(C)O (stereo partly drawn)	> 4 mM (inactive)
O=C(O)CC1C(=O)NCCN1Cc1cccs1 (stereo not drawn)	> 4 mM (inactive)
Cc1occc1C(=O)Nc1nnc(C2CCCCC2)s1	> 4 mM (inactive)
NC(=O)CSc1nc2[nH]ncc2c(=O)[nH]1	> 4 mM (inactive)
NCc1n[nH]c(=O)c2ccccc12	> 4 mM (inactive)
CC(O)C(=O)N/N=C/c1ccccc1 (stereo not drawn)	> 4 mM (inactive)
Cc1cc(C(=O)NCc2cccs2)c(C)o1	> 4 mM (inactive)
COC(=O)c1ccc2ncccc2c1	> 4 mM (inactive)
O=C(O)Cn1cc(C(=O)C2CC2)c2ccccc21	> 4 mM (inactive)
NCc1ccc(-n2cccc2)cc1	> 4 mM (inactive)
N#Cc1cc2ccccc2nc1N	> 4 mM (inactive)
c1ccc(C[N+]23CCN(CC2)c2ccccc23)cc1	> 4 mM (inactive)
Cc1nc2sccn2c1C(=O)O	> 4 mM (inactive)
Cc1cc(C(=O)Nc2ccccn2)no1	> 4 mM (inactive)
CS(=O)(=O)c1ccc(N)cc1	> 4 mM (inactive)
COn1c(=O)c(C)[n+]([O-])c2ccccc21	> 4 mM (inactive)
Cc1cccc(C(C)C)c1NC(=O)c1cccnc1	> 4 mM (inactive)
Nc1nc2ccc(N3CCOCC3)cc2s1	> 4 mM (inactive)

Compound	Kd
Cc1cc(C)n2nc(-c3cccnc3)nc2n1	> 4 mM (inactive)
Cc1cc(C)n(S(=O)(=O)c2ccc(C(C)(C)C)cc2)n1	> 4 mM (inactive)
Cc1nc(-c2cc(CO)no2)cs1	> 4 mM (inactive)
CNC[C@@H](O)c1ccc(O)c(O)c1	> 4 mM (inactive)
O=c1[nH]c2sc3c(c2c2nncn12)CCCC3	> 4 mM (inactive)
O=C(O)c1cccc(-n2cccc2)c1	> 4 mM (inactive)
COC(=O)c1cccc(Cn2nnc3ccccc3c2=O)c1	> 4 mM (inactive)
NC(=O)c1ccccc1NC(=O)C1CCCO1 (stereo not drawn)	> 4 mM (inactive)
COc1cc2nc[nH]c(=O)c2cc1OC	> 4 mM (inactive)
CC1CCN(C(=O)c2cc3ccccc3o2)CC1	> 4 mM (inactive)
CC(=O)NC(=S)Nc1nc2ccccc2n1C(C)=O	> 4 mM (inactive)
Cc1nn(-c2ccccc2)nc1CN	> 4 mM (inactive)
O=c1ccn([C@@H]2O[C@H](COP(=O)(O)OP(=O)(O)OP(=O)(O)O)[C@@H](O)[C@H]2O)c(=O)[nH]1	> 4 mM (inactive)
CS(=O)(=O)N1CCC(C(=O)NC2CCCC2)CC1	> 4 mM (inactive)
Cc1c(C)[n+](=O)c(-c2cccs2)c(C)n1[O-]	> 4 mM (inactive)
Cc1c(C(=O)OC(C)C)[nH]c2c1C(=O)CCC2	> 4 mM (inactive)
NC(=O)Cn1cnc2c(cnn2-c2ccccc2)c1=O	> 4 mM (inactive)
Nc1cc(=O)[nH]c(=O)n1-c1ccccc1	> 4 mM (inactive)
Cc1cc(C)n2nc(NCc3ccccc3)nc2n1	> 4 mM (inactive)
COc1c2ccccc2nc2occc12	> 4 mM (inactive)
O=C1C2C3C=CC(C3)C2C(=O)N1CCO (stereo not drawn)	> 4 mM (inactive)
S=c1nc2c(n[nH]1)[nH]c1ccccc12	> 4 mM (inactive)
